Reference: paper PMC11401813, “Grewiifopenes A–K, bioactive clerodane diterpenoids from Casearia grewiifolia Vent” (Natural Products and Bioprospecting, 2024)
Converted amounts (≈) assume the structure as drawn.

Tests used:
[1] = tested on: A549 (lung adenocarcinoma); assay: Cytotoxicity, MTT assay, A549; type: cell-based, human; conditions: Homo sapiens, A549, A549 cell line, mean ± s.d. (n = 3)
Protocol: (§1) The in vitro cytotoxicity assay toward a panel of human cancer cell lines of several clerodane diterpenoids has been well investigated. Thus, the isolates in adequate amounts were tested against MOLT-3 (acute lymphoblastic leukemia), HuCCA-1 (cholangiocarcinoma), HepG2 (hepatocellular carcinoma), A549 (lung adenocarcinoma), HeLa (cervical carcinoma), and MDA-MB-231 (triple negative breast cancer) cancer cell lines using the MTT and XTT methods. Doxorubicin and etoposide were used as positive controls.
(§2) The MTT (3-(4,5-dimethylthiazol-2-yl)-2,5-diphenyltetrazolium bromide) assay was employed for the cytotoxic evaluation against five human cancer cell lines, including HepG2, A549, MDA-MB-231, HeLa, and HuCCA-1, while the XTT (2,3-bis-(2-methoxy-4-nitro-5-sulphenyl)-(2H)-tetrazolium-5-carboxanilide) method was used for MOLT-3 cancer cell.

[2] = tested on: HepG2 (hepatocellular carcinoma); assay: Cytotoxicity, MTT assay, HepG2; type: cell-based, human; conditions: Homo sapiens, HepG2, HepG2 cell line; MTT; mean ± s.d. (n = 3); read-out: IC50, HepG2
Protocol: as §1, §2

[3] = tested on: MOLT-3 (acute lymphoblastic leukemia); assay: Cytotoxicity, XTT method, MOLT-3; type: cell-based; conditions: Homo sapiens; MOLT-3 cell line; XTT; mean ± s.d. (n = 3); read-out: IC50, MOLT-3
Protocol: as §1, §2

[4] = tested on: MDA-MB-231 (triple negative breast cancer); assay: Cytotoxicity, MTT assay, MDA-MB-231; type: cell-based, human; conditions: Homo sapiens, MDA-MB-231, MDA-MB-231 cell line; MTT; mean ± s.d. (n = 3); read-out: IC50, MDA-MB-231
Protocol: as §1, §2

[5] = tested on: HeLa (cervical carcinoma); assay: Cytotoxicity, MTT assay, HeLa; type: cell-based, human; conditions: Homo sapiens, HeLa, HeLa cell line; MTT; mean ± s.d. (n = 3); read-out: IC50, HeLa
Protocol: as §1, §2

[6] = tested on: HuCCA-1 (cholangiocarcinoma); assay: Cytotoxicity, MTT assay, HuCCA-1; type: cell-based, human; conditions: Homo sapiens, HuCC-A1, HuCCA-1 cell line; MTT; mean ± s.d. (n = 3); read-out: IC50, HuCCA-1
Protocol: as §1, §2

[7] = tested on: Bacillus cereus (ATCC 11778); assay: Antibacterial broth microdilution (MIC/MBC), B. cereus; type: cell-based; conditions: Bacillus cereus, ATCC11778
Protocol: (§3) In addition, the isolates were also evaluated for their antibacterial activity towards three strains including Bacillus cereus (ATCC 11778), Staphylococcus aureus (ATCC 6538) and Staphylococcus epidermidis (ATCC 12228) using penicillin G and gentamicin as the antibiotic controls (Table 5). […] Finally, the inhibitory activity of aromatase by using a CYP19 screening kit was investigated. The aromatase (also called estrogen synthase) is responsible for converting the non-aromatic ring A of androgens to estrogens, which are related to the proliferation of breast cancer cells.
(§4) The tested strains, Staphylococcus aureus (S. aureus) ATCC6538, Staphylococcus epidermidis (S. epidermidis) ATCC12228, and Bacillus cereus (B. cereus) ATCC11778 were obtained from the American Type Culture Collection (ATCC).
(§5) All tested species were grown on Mueller Hinton Agar (MHA) and incubated at 37 °C for 18–24 h. The bacterial colonies suspension in sterile normal saline was diluted until they reached a 1 × 10^6 CFC/mL concentration, which was then compared to the McFarland scale. This step provided a standard bacterial suspension (1 × 10^6 CFU/mL), which was used for the following assays.
(§6) The broth microdilution technique was used for the MIC and MBC determination, which was expressed according to Clinical and Laboratory Standards Institute (CLSI) standard M07 guideline. The compounds were prepared as a stock solution by dissolving in dimethyl sulfoxide (DMSO) with the concentration ranging from 0.195 to 200 µg/mL. DMSO and penicillin G or gentamicin were used as normal and standard drug control. […] Three replicates were performed for each experiment.

[8] = tested on: Staphylococcus epidermidis (ATCC 12228); assay: Antibacterial broth microdilution (MIC/MBC), S. epidermidis; type: cell-based; conditions: ATCC12228
Protocol: as §3, §4, §5, §6

[9] = tested on: Staphylococcus aureus (ATCC 6538); assay: Antibacterial broth microdilution (MIC/MBC), S. aureus; type: cell-based; conditions: ATCC6538
Protocol: as §3, §4, §5, §6

[10] = biological target: T1, aromatase (CYP19) (Homo sapiens, UniProt P11511); assay: Aromatase (CYP19) inhibition assay; type: biochemical
T1 construct: purchased
T1 sequence (P11511 1-503): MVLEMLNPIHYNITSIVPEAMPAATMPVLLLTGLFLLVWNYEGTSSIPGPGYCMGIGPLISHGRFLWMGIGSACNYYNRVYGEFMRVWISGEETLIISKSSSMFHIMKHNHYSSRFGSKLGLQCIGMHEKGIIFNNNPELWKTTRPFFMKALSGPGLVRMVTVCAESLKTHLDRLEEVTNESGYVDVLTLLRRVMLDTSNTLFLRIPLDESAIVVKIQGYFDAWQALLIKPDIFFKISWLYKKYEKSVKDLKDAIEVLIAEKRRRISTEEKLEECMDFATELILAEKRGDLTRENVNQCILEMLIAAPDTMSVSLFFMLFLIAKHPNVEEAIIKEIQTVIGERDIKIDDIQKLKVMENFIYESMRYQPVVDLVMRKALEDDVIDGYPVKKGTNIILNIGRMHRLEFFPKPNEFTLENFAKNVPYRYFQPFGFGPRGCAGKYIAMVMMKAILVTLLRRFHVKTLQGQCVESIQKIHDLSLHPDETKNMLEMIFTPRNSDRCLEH
Protocol: as §3
The aromatase assay used a method previously designed by Stresser and co-workers.

SMILES	MIC [7] [µg/mL]	MIC [8] [µg/mL]	MIC [9] [µg/mL]	inhibition at 12.5 µM ([10]; at a concentration of 12.5 µM) [%]	Aromatase inhibitory activity (in words) ([10]; at the concentration up to 12.15 µM)	IC50 [1] [µM]	IC50 [2] [µM]	IC50 [3] [µM]	IC50 [4] [µM]	IC50 [5] [µM]	IC50 [6] [µM]	MBC [7] [µg/mL]	MBC [8] [µg/mL]	MBC [9] [µg/mL]
C=CC(=C)CC[C@]1(C)[C@H](C)[C@@H](OC(=O)/C=C/c2ccc(O)cc2)[C@H](O)[C@@]23C(=C[C@H](OC(=O)CC(C)C)C[C@@H]12)[C@H](OC(C)=O)O[C@H]3OC(C)=O [Compound 14, Grewiifopene G]	–	–	–	–	–	2.6 ± 0.1	7.3 ± 0.6	1.3 ± 0.5	2 ± 0.1	2.4 ± 0.2	1.8 ± 0.2	–	–	–
C=CC(C)=CCC1(C)C(C)C(OC(C)=O)C(OC(C)=O)C23C(=CC(OC(=O)CC(C)C)CC12)C(OC(C)=O)OC3OC(C)=O (centres unmarked) [Compound 15, Grewiifopene H]	> 200	> 200	> 200	–	–	9.2 ± 1.2	38.5 ± 2.8	3.1 ± 0.4	9.1 ± 0.3	8.8 ± 0.6	6.6 ± 0.6	> 200	> 200	> 200
C=CC(=C)CC[C@]1(C)[C@H](C)[C@@H](OC(C)=O)[C@H](OC)[C@@]23C(=C[C@H](OC(=O)CC(C)C)C[C@@H]12)[C@@H](OC(C)=O)O[C@H]3OC(C)=O [Compound 2, Grewiifopene B]	100 (≈ 169 µM)	> 200	> 200	–	–	7.8 ± 0.5	37.1 ± 4.1	2.7 ± 0.4	9.3 ± 0.4	8.8 ± 0.9	8.7 ± 1.1	> 200	> 200	> 200

Second part, led by results:

MIC [7] [µg/mL]	MIC [8] [µg/mL]	MIC [9] [µg/mL]	inhibition at 12.5 µM ([10]; at a concentration of 12.5 µM) [%]	Aromatase inhibitory activity (in words) ([10]; at the concentration up to 12.15 µM)	SMILES	IC50 [1] [µM]	IC50 [2] [µM]	IC50 [3] [µM]	IC50 [4] [µM]	IC50 [5] [µM]	IC50 [6] [µM]	MBC [7] [µg/mL]	MBC [8] [µg/mL]	MBC [9] [µg/mL]
3.12 (≈ 9.35 µM)	0.195 (≈ 0.583 µM)	0.00076 (≈ 0.00227 µM)	–	–	CC1(C)S[C@@H]2[C@H](NC(=O)Cc3ccccc3)C(=O)N2[C@H]1C(=O)O [Penicillin G, reference compound]	–	–	–	–	–	–	3.12 (≈ 9.35 µM)	1.56 (≈ 4.67 µM)	0.003 (≈ 0.00897 µM)
100 (≈ 188 µM)	> 200	> 200	31	did not show activity	C=CC(=C)CC[C@]1(C)[C@H]2C[C@H](OC(=O)CC(C)C)C=C3[C@H](OC(C)=O)O[C@H](OC(C)=O)[C@@]32[C@H](OC)C[C@@H]1C [Compound 9, caseargrewiin A]	5 ± 0.5	9.5 ± 0.8	3 ± 0.2	8.1 ± 0.4	5.2 ± 0.1	5.2 ± 0.4	100 (≈ 188 µM)	> 200	> 200
0.048 (≈ 0.101 µM)	0.024 (≈ 0.0503 µM)	0.024 (≈ 0.0503 µM)	–	–	CNC(C)C1CCC(N)C(OC2C(N)CC(N)C(OC3OCC(C)(O)C(NC)C3O)C2O)O1 (centres unmarked) [Gentamicin, reference compound]	–	–	–	–	–	–	0.048 (≈ 0.101 µM)	0.024 (≈ 0.0503 µM)	0.024 (≈ 0.0503 µM)
12.5 (≈ 24.8 µM)	> 200	> 200	–	–	C=CC(=C)CC[C@]1(C)[C@H](C)C[C@H](OC)[C@@]23C(=C[C@H](OC(=O)CC(C)C)C[C@@H]12)[C@@H](OC)O[C@H]3OC(C)=O [Compound 10, kurzipene A]	8.2 ± 0.8	13 ± 1	5 ± 1.4	10.4 ± 0.2	10.7 ± 0.6	7.5 ± 0.2	12.5 (≈ 24.8 µM)	> 200	> 200
